Values quoted from earlier work in patent US8470822B2, “Folate mimetics and folate-receptor binding conjugates thereof” (Purdue Research Foundation, priority 2001, dated 2013).

Tested on: high-affinity folate receptor
Details: 2 μM pteroic acid (100-fold excess); cited from earlier work

## Nc1nc2ncc(CNc3ccc(C(=O)O)cc3)nc2c(=O)[nH]1 [pteroic acid]
  effect on the binding of folate to the folate receptor: absolutely no effect
